The record followed here is ChEMBL document CHEMBL2010711, “Synthesis and comparative evaluation of 4-oxa- and 4-aza-podophyllotoxins as antiproliferative microtubule destabilizing agents” (Bioorg Med Chem Lett, 2012).

In assay [1] the test system is Paracentrotus lividus. The assay can be described thus: Microtubule destabilizing activity in Paracentrotus lividus embryo assessed as embryo spinning at 2 fold less effective threshold concentration after 15 mins to 20 hrs. Format: functional, organism-based.
Assay [2] relates to Paracentrotus lividus. The assay can be described thus: Antimitotic activity against Paracentrotus lividus embryo assessed as cleavage alteration at 2 fold less effective threshold concentration after 2.5 to 6 hrs. In kind it is functional, organism-based.
The subject of assay [3] is Paracentrotus lividus. The assay can be described thus: Antimitotic activity against Paracentrotus lividus embryo assessed as cleavage arrest at 2 fold less effective threshold concentration after 2.5 to 6 hrs. In kind it is functional, organism-based.
In assay [4] the test system is Paracentrotus lividus. The assay can be described thus: Antimitotic activity against Paracentrotus lividus embryo assessed as concentration required to cause 100% cleavage alteration after 2.5 to 6 hrs. In kind it is functional.
In assay [5] the test system is Paracentrotus lividus. The assay can be described thus: Antimitotic activity against Paracentrotus lividus embryo assessed as concentration required to cause 100% cleavage arrest after 2.5 to 6 hrs. In kind it is functional.
In assay [6] the test system is Paracentrotus lividus. The assay can be described thus: Microtubule destabilizing activity in Paracentrotus lividus embryo assessed as concentration required to cause 100% embryo spinning after 15 mins to 20 hrs. Format: functional.

Each structure is given as a SMILES string. Calls of active or inactive are those of the source. Where only a bound is given, the exact number is not on record here.

Turning to `COc1cc([C@H]2C3=C(COC3=O)Nc3cc4c(cc32)OCO4)cc(OC)c1OC`, the result with Paracentrotus lividus [1], with Paracentrotus lividus [2] and in the assay on Paracentrotus lividus [3] was inactive.
On to `COc1cc2c(c(OC)c1OC)C(c1ccccc1)C1=C(COC1=O)O2` (configuration not stated), for which the results for the EC with Paracentrotus lividus [4], in the assay on Paracentrotus lividus [5] and in the assay with Paracentrotus lividus [6] were 2000 nM, greater than 4000 nM and greater than 4000 nM, respectively. In addition, the result in the assay with Paracentrotus lividus [1], in the assay with Paracentrotus lividus [2] and in the assay on Paracentrotus lividus [3] was inactive.
Consider `COc1ccc2c(c1)NC1=C(C(=O)OC1)C2c1cc(OC)c(OC)c(OC)c1` (configuration not stated), for which the EC was 50 nM with Paracentrotus lividus [4], 500 nM with Paracentrotus lividus [5] and 500 nM in the assay on Paracentrotus lividus [6]. Moreover, the result in the assay with Paracentrotus lividus [1], in the assay with Paracentrotus lividus [2] and in the assay on Paracentrotus lividus [3] was inactive.
In the case of `COc1ccc2c(c1)NC1=C(C(=O)OC1)C2c1cc(OC)c2c(c1)OCCO2` (configuration not stated), the results for the EC in the assay on Paracentrotus lividus [4], in the assay on Paracentrotus lividus [5] and in the assay with Paracentrotus lividus [6] were 10 nM, 50 nM and 1000 nM, respectively. In addition, the outcome with Paracentrotus lividus [1], with Paracentrotus lividus [2] and with Paracentrotus lividus [3] was inactive.
Regarding `COc1cc(OC)cc(C2C3=C(COC3=O)Oc3cc(OC)ccc32)c1` (configuration not stated), the values for the EC in the assay on Paracentrotus lividus [4], in the assay on Paracentrotus lividus [5] and in the assay with Paracentrotus lividus [6] were 1 nM, 5 nM and 50 nM, respectively. Moreover, the result in the assay with Paracentrotus lividus [1], with Paracentrotus lividus [2] and in the assay with Paracentrotus lividus [3] was inactive.
